The values that follow are results of earlier work, collected in EP0974361A1, “METHOD OF USING ANTACID AGENT AND PHARMACEUTICAL PREPARATION CONTAINING ANTACID AGENT” (CHUGAI SEIYAKU KABUSHIKI KAISHA, priority 1996, dated 1997).

Like-named read-outs stand apart in the source and are kept apart here.

On to `CN/C(=N/CCSCc1nc[nH]c1C)NC#N` [cimetidine], for which the AUC entry (simultaneous administration of sucralfate (Yoshida et al.)) is recorded as “drop”.
Regarding `C[C@H]1O[C@@H](O[C@H]2[C@@H](O)C[C@H](O[C@H]3[C@@H](O)C[C@H](O[C@H]4CC[C@@]5(C)[C@H](CC[C@@H]6[C@@H]5C[C@@H](O)[C@]5(C)[C@@H](C7=CC(=O)OC7)CC[C@]65O)C4)O[C@@H]3C)O[C@@H]2C)C[C@H](O)[C@@H]1O` [digoxin], the drop in adsorption (used along with sucralfate (Giesing et al.)) is on record as 19%.
In the case of `CC(C)Cc1ccc(C(C)C(=O)O)cc1` (centres unmarked) [ibuprofen], where the note is “used along with sucralfate (Anaya et al.)”, the absorption result was “reduced and retarded”.
Turning to `CC(=O)N1CCN(c2ccc(OCC3COC(Cn4ccnc4)(c4ccc(Cl)cc4Cl)O3)cc2)CC1` (centres unmarked) [ketoconazole], the “bioavailability dropped by” value (used along with sucralfate (Goss et al.; Maconochie et al.)) is given as 21%.
For `CNC(=C[N+](=O)[O-])NCCSCc1ccc(CN(C)C)o1` [ranitidine], the “bioavailability dropped by” value (in vivo) is listed as 29%.
